Results on 7 compounds are retold here after PubChem BioAssay (NCI).

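Method: 48-hour compound exposure of cells in 96-well plates, five concentrations, linear interpolation of endpoints. The concentration for full growth arrest is given as TGI.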

Some test systems named below: HCT-116 colon; MALME-3M melanoma; SW-620 colon; EKVX NSCLC; TK-10 renal; SR leukemia; SN12C renal; MDA-MB-435; UACC-257 melanoma; NCI-H522 lung; SF-539 CNS; HT29 colon; OVCAR-3 ovarian; NCI-H23 lung; OVCAR-5 ovarian; A549 NSCLC; UACC-62 melanoma; SF-295 CNS; SK-OV-3 ovarian.
Holding throughout (assay): inhibition of tumour cell growth, NCI panel, 48 h

Regarding `Cc1nn(-c2ccccc2)c2c1C(c1ccc(Cl)cc1)NC(=S)N2` (stereo not drawn), the TGI in the test with HCT-116 colon is above 100 µM; with MALME-3M melanoma, 93.9 µM; with SW-620 colon it was 71.1 µM; with EKVX NSCLC, 90.8 µM; in the test on TK-10 renal, 43.6 µM; with SR leukemia, above 100 µM. Further, the TGI is 47.5 µM in the test with SN12C renal; 47.4 µM in the test with MDA-MB-435; above 100 µM in the test on UACC-257 melanoma; 37.2 µM with NCI-H522 lung; 37.4 µM in the test with SF-539 CNS; above 100 µM with HT29 colon. The TGI is above 100 µM in the test with OVCAR-3 ovarian; 44.5 µM with NCI-H23 lung; 89.4 µM with OVCAR-5 ovarian; 69.5 µM with A549 NSCLC; 60.5 µM in the test on UACC-62 melanoma; 62.3 µM in the test with SF-295 CNS. The same compound displayed a TGI with SK-OV-3 ovarian of 59.8 µM.
For `CN(CC(=O)O)c1ncc2c(n1)CCCC2`, the TGI in the test on HCT-116 colon, in the test with MALME-3M melanoma, in the test with SW-620 colon, with EKVX NSCLC, in the test on TK-10 renal and in the test with SR leukemia was above 100 µM each time. For the same compound, the TGI in the test with SN12C renal, in the test with MDA-MB-435, in the test on UACC-257 melanoma, in the test on NCI-H522 lung, in the test on SF-539 CNS and in the test with HT29 colon was above 100 µM in each case. Also, the TGI in the test with OVCAR-3 ovarian, with NCI-H23 lung, in the test with OVCAR-5 ovarian, with A549 NSCLC, with UACC-62 melanoma and with SF-295 CNS was above 100 µM each time. The compound further displayed a TGI in the test with SK-OV-3 ovarian above 100 µM.
For `O=C(/C=C/c1cc2ccccc2o1)N1CCN(c2ccccn2)CC1`, the TGI in the test on HCT-116 colon, in the test on MALME-3M melanoma, with SW-620 colon, with EKVX NSCLC, in the test with TK-10 renal and in the test on SR leukemia was above 100 µM each time. In addition, the TGI with SN12C renal, in the test on MDA-MB-435, with UACC-257 melanoma, in the test with NCI-H522 lung, in the test with SF-539 CNS and in the test on HT29 colon was above 100 µM in each case. For the same compound, the TGI in the test with OVCAR-3 ovarian, in the test on NCI-H23 lung, in the test with OVCAR-5 ovarian, in the test with A549 NSCLC, in the test with UACC-62 melanoma and in the test with SF-295 CNS was above 100 µM each time. Besides, the TGI with SK-OV-3 ovarian is above 100 µM.
Turning to `CN(C)CCCC12CCCCC1=Nc1ccccc12` (stereo not drawn), the TGI in the test on HCT-116 colon was above 100 µM; with MALME-3M melanoma, above 100 µM; with SW-620 colon, above 100 µM; with EKVX NSCLC it was above 100 µM; in the test with TK-10 renal, above 100 µM; in the test with SR leukemia it was 69.2 µM. For the same compound, the TGI in the test on SN12C renal, in the test with MDA-MB-435, with UACC-257 melanoma, in the test with NCI-H522 lung, in the test on SF-539 CNS and in the test with HT29 colon was above 100 µM each time. The TGI in the test with OVCAR-3 ovarian, with NCI-H23 lung, in the test with OVCAR-5 ovarian, in the test with A549 NSCLC, in the test with UACC-62 melanoma and in the test with SF-295 CNS was above 100 µM in each case. Moreover, the TGI in the test with SK-OV-3 ovarian was above 100 µM.
`Fc1cc(-c2cc(-c3ccccc3)no2)c(Cl)cc1Cl`: the TGI with HCT-116 colon is above 31.7 µM; with MALME-3M melanoma, above 35.2 µM; in the test with SW-620 colon it was above 63.3 µM; with EKVX NSCLC, above 51.9 µM; in the test on TK-10 renal, above 51.7 µM; with SR leukemia it was above 41.8 µM. In addition, the TGI is above 54.4 µM in the test on SN12C renal; above 35.9 µM in the test on MDA-MB-435; above 71.6 µM in the test on UACC-257 melanoma; above 34.5 µM with NCI-H522 lung; above 17.2 µM with SF-539 CNS; above 46.7 µM in the test with HT29 colon. Moreover, the TGI with OVCAR-3 ovarian is above 40.1 µM; in the test on NCI-H23 lung, above 34.2 µM; in the test on OVCAR-5 ovarian it was above 42.9 µM; with A549 NSCLC, above 41.6 µM; in the test on UACC-62 melanoma it was above 100 µM; in the test on SF-295 CNS it was above 49.4 µM. The compound also displayed a TGI in the test with SK-OV-3 ovarian above 50.3 µM.
In the case of `O=[N+]([O-])c1ccc2c(c1)C1=C(CO2)Cc2ccccc2O1`, the TGI is 30 µM in the test with HCT-116 colon; 70.4 µM in the test on MALME-3M melanoma; 53.5 µM in the test on SW-620 colon; above 100 µM in the test with EKVX NSCLC; 57 µM with TK-10 renal; above 100 µM in the test on SR leukemia. Moreover, the TGI was determined as 45.2 µM in the test on SN12C renal; 80.5 µM in the test on MDA-MB-435; 33.5 µM in the test with UACC-257 melanoma; 54.5 µM in the test with NCI-H522 lung; 52.2 µM with SF-539 CNS; 88 µM with HT29 colon. Besides, the TGI with OVCAR-3 ovarian is 41.6 µM; with NCI-H23 lung, 59.2 µM; with OVCAR-5 ovarian, 54.7 µM; in the test on A549 NSCLC, above 100 µM; in the test with UACC-62 melanoma, 50.7 µM; in the test on SF-295 CNS, above 100 µM. In the test with SK-OV-3 ovarian, this compound returned a TGI above 100 µM.
For `Nc1nc(SC/C=C/c2ccccc2)c2[nH]cnc2n1`, the TGI with HCT-116 colon, in the test on MALME-3M melanoma, with SW-620 colon, in the test with EKVX NSCLC, in the test with TK-10 renal and in the test on SR leukemia was above 100 µM in each case. In addition, the TGI with SN12C renal, in the test on MDA-MB-435, in the test on UACC-257 melanoma, in the test on NCI-H522 lung, with SF-539 CNS and in the test on HT29 colon was above 100 µM in each case. The TGI in the test on OVCAR-3 ovarian, with NCI-H23 lung, in the test on OVCAR-5 ovarian, in the test on A549 NSCLC, in the test on UACC-62 melanoma and in the test on SF-295 CNS was above 100 µM each time. This compound displayed a TGI in the test on SK-OV-3 ovarian above 100 µM.
